Assay results taken from patent US9938258B2 (Karyopharm Therapeutics Inc., priority 2012, dated 2018).

Assays:
3T3 cells = assay: MTT cell proliferation assay, 3T3; assay type: cell-based, mouse; details: Mus musculus, NIH3T3, 3T3 cells; eight concentrations 1 nM to 30 μM; incubation approximately 64-72 hours; read-out: MTT Assay IC50, 3T3
Protocol: (§1) The MTT cell proliferation assay was used to study the cytotoxic properties of the compounds. The assay was performed according to the method described by Roche Molecular Biochemicals, with minor modifications. The assay is based on the cleavage of the tetrazolium salt, MTT, in the presence of an electron-coupling reagent. The water-insoluble formazan salt produced must be solubilized in an additional step. Cells grown in a 96-well tissue culture plate were incubated with the MTT solution for approximately 4 hours. After this incubation period, a water-insoluble formazan dye formed. After solubilization, the formazan dye was quantitated using a scanning multi-well spectrophotometer (ELISA reader). […] The cells were seeded at 5,000-10,000 cells in each well of 96-well plate in 100 μL of fresh culture medium and were allowed to attach overnight. The stock solutions of the compounds were diluted in 100 μL cell culture medium to obtain eight concentrations of each test compound, ranging from 1 nM to 30 μM. […] All optical densities were measured at 490 nm using a Vmax Kinetic Microplate Reader (Molecular Devices). In most cases, the assay was performed in duplicate and the results were presented as a mean percent inhibition to the negative control±SE. The following formula was used to calculate the percent of inhibition: Inhibition (%)=(1-(ODo/OD)) ×100.
(§2) The compounds were tested against MS751, Z138 and 3T3 cells. The MS751 cell line is derived from a metastasis to lymph node of human cervix from a patient diagnosed with squameous cell carcinoma of the cervix. The Z138 cell line is a mature B-cell acute lymphoblastic leukemia cell line derived from a patient with chronic lumphocytic leukemia. 3T3 cells are standard fibroblast cells; they were originally isolated from Swiss mouse embryo tissue.

MS751 cells = assay: MTT cell proliferation assay, MS751; assay type: cell-based, human; details: Homo sapiens, MS751, MS751 cells; eight concentrations 1 nM to 30 μM; incubation approximately 64-72 hours; read-out: MTT Assay IC50, MS751
Protocol: as §1, §2

Z138 cells = assay: MTT cell proliferation assay, Z138; assay type: cell-based; details: Homo sapiens, Z-138, Z138 cells; eight concentrations 1 nM to 30 μM; incubation approximately 64-72 hours; read-out: MTT Assay IC50, Z138
Protocol: as §1, §2

Compound	IC50 (3T3 cells) [µM]	IC50 (MS751 cells) [µM]	IC50 (Z138 cells) [µM]
O=C(/C=C/c1cccnc1)NCC1Cc2cc(-c3ccc(C(=O)O)cc3)cc(Cl)c2O1 (stereo not drawn) [Compound 129, (E)-4-(7-chloro-2-((3-(pyridin-3-yl)acrylamido)methyl)-2,3-dihydrobenzofuran-5-yl)benzoic acid]	5 to 30	5 to 30	5 to 30
CC(=O)c1ccc(-c2cc(C)c3c(c2)CC(CNC(=O)/C=C/c2cccnc2)O3)s1 (stereo not drawn) [Compound 138, (E)-N-((5-(5-acetylthiophen-2-yl)-7-methyl-2,3-dihydrobenzofuran-2-yl)methyl)-3-(pyridin-3-yl)acrylamide]	0.1 to 5	< 0.1	< 0.1
CC(=O)c1ccc(-c2cc(Cl)c3c(c2)CC(CNC(=O)/C=C/c2ccc(C)nc2)O3)s1 (stereo not drawn) [Compound 146, (E)-N-((5-(5-acetylthiophen-2-yl)-7-chloro-2,3-dihydrobenzofuran-2-yl)methyl)-3-(6-methylpyridin-3-yl)acrylamide]	> 30	5 to 30	> 30
CC(=O)c1ccc(-c2cc(Cl)c3c(c2)CC(CNC(=O)/C=C/c2c(C)noc2C)O3)s1 (stereo not drawn) [Compound 147, (E)-N-((5-(5-acetylthiophen-2-yl)-7-chloro-2,3-dihydrobenzofuran-2-yl)methyl)-3-(3,5-dimethylisoxazol-4-yl)acrylamide]	> 30	0.1 to 5	0.1 to 5
CC(=O)c1ccc(-c2cc(Cl)c3c(c2)CC(CNC(=O)/C=C/c2cnc(C)s2)O3)s1 (stereo not drawn) [Compound 148, (E)-N-((5-(5-acetylthiophen-2-yl)-7-chloro-2,3-dihydrobenzofuran-2-yl)methyl)-3-(2-methylthiazol-5-yl)acrylamide]	> 30	5 to 30	> 30
CC(=O)c1ccc(-c2cc(Cl)c3c(c2)CC(CNC(=O)/C=C/c2cnn(C)c2)O3)s1 (stereo not drawn) [Compound 149, (E)-N-((5-(5-acetylthiophen-2-yl)-7-chloro-2,3-dihydrobenzofuran-2-yl)methyl)-3-(1-methyl-1H-pyrazol-4-yl)acrylamide]	> 30	> 30	> 30
CC(=O)c1ccc(-c2cc(Cl)c3c(c2)CC(CNC(=O)/C=C/c2ccc(C)o2)O3)s1 (stereo not drawn) [Compound 150, (E)-N-((5-(5-acetylthiophen-2-yl)-7-chloro-2,3-dihydrobenzofuran-2-yl)methyl)-3-(5-methylfuran-2-yl)acrylamide]	> 30	> 30	> 30
CC(=O)c1ccc(-c2cc(Cl)c3c(c2)CC(CNC(=O)/C=C/c2cnc4ccccc4n2)O3)s1 (stereo not drawn) [Compound 151, (E)-N-((5-(5-acetylthiophen-2-yl)-7-chloro-2,3-dihydrobenzofuran-2-yl)methyl)-3-(quinoxalin-2-yl)acrylamide]	> 30	> 30	> 30
CC(=O)c1ccc(-c2cc(Cl)c3c(c2)CC(CNC(=O)/C=C/c2sccc2C)O3)s1 (stereo not drawn) [Compound 152, (E)-N-((5-(5-acetylthiophen-2-yl)-7-chloro-2,3-dihydrobenzofuran-2-yl)methyl)-3-(3-methylthiophen-2-yl)acrylamide]	> 30	> 30	> 30
CC(=O)c1ccc(-c2cc(Cl)c3c(c2)CC(CNC(=O)/C=C/c2cc[nH]c2)O3)s1 (stereo not drawn) [Compound 153, (E)-N-((5-(5-acetylthiophen-2-yl)-7-chloro-2,3-dihydrobenzofuran-2-yl)methyl)-3-(1H-pyrrol-3-yl)acrylamide]	> 30	> 30	> 30
CC(=O)c1ccc(-c2cc(Cl)c3c(c2)CC(CNC(=O)/C=C/c2c(C)nn(CC(C)C)c2Cl)O3)s1 (stereo not drawn) [Compound 154, (E)-N-((5-(5-acetylthiophen-2-yl)-7-chloro-2,3-dihydrobenzofuran-2-yl)methyl)-3-(5-chloro-1-isobutyl-3-methyl-1H-pyrazol-4-yl)acrylamide]	> 30	> 30	> 30
CCn1cc(/C=C/C(=O)NCC2Cc3cc(-c4ccc(C(C)=O)s4)cc(Cl)c3O2)cn1 (stereo not drawn) [Compound 155, (E)-N-((5-(5-acetylthiophen-2-yl)-7-chloro-2,3-dihydrobenzofuran-2-yl)methyl)-3-(1-ethyl-1H-pyrazol-4-yl)acrylamide]	> 30	> 30	> 30
CC(=O)c1ccc(-c2cc(Cl)c3c(c2)CC(CNC(=O)/C=C/c2cn(C)nc2C)O3)s1 (stereo not drawn) [Compound 156, (E)-N-((5-(5-acetylthiophen-2-yl)-7-chloro-2,3-dihydrobenzofuran-2-yl)methyl)-3-(1,3-dimethyl-1H-pyrazol-4-yl)acrylamide]	> 30	> 30	> 30
CC(=O)c1ccc(-c2cc(Cl)c3c(c2)CC(CNC(=O)/C=C/c2cnn(C)c2C)O3)s1 (stereo not drawn) [Compound 157, (E)-N-((5-(5-acetylthiophen-2-yl)-7-chloro-2,3-dihydrobenzofuran-2-yl)methyl)-3-(1,5-dimethyl-1H-pyrazol-4-yl)acrylamide]	> 30	> 30	> 30
CC(=O)c1ccc(-c2cc(Cl)c3c(c2)CC(CNC(=O)/C=C/c2csc(C)n2)O3)s1 (stereo not drawn) [Compound 159, (E)-N-((5-(5-acetylthiophen-2-yl)-7-chloro-2,3-dihydrobenzofuran-2-yl)methyl)-3-(2-methylthiazol-4-yl)acrylamide]	> 30	> 30	> 30
CC(=O)c1ccc(-c2cc(Cl)c3c(c2)CC(CNC(=O)/C=C/c2c(C)nn(C)c2Cl)O3)s1 (stereo not drawn) [Compound 160, (E)-N-((5-(5-acetylthiophen-2-yl)-7-chloro-2,3-dihydrobenzofuran-2-yl)methyl)-3-(5-chloro-1,3-dimethyl-1H-pyrazol-4-yl)acrylamide]	> 30	> 30	> 30
CC(=O)c1ccc(-c2cc(Cl)c3c(c2)CC(CNC(=O)/C=C/c2c(C)nc4sc(C)cn24)O3)s1 (stereo not drawn) [Compound 161, (E)-N-((5-(5-acetylthiophen-2-yl)-7-chloro-2,3-dihydrobenzofuran-2-yl)methyl)-3-(2,6-dimethylimidazo[2,1-b]thiazol-5-yl)acrylamide]	> 30	> 30	> 30
CC(OC(=O)CCCC[C@@H]1SC[C@@H]2NC(=O)N[C@@H]21)c1ccc(-c2cc(Cl)c3c(c2)CC(CNC(=O)/C=C/c2cccnc2)O3)s1 (stereo partly drawn) [Compound 162, 1-(5-(7-chloro-2-(((E)-3-(pyridin-3-yl)acrylamido)methyl)-2,3-dihydrobenzofuran-5-yl)thiophen-2-yl)ethyl 5-((3aS,4S,6aR)-2-oxohexahydro-1H-thieno[3,4-d]imidazol-4-yl)pentanoate]	0.1 to 5	< 0.1	< 0.1
CC(=O)c1ccc(-c2cc(Cl)c3c(c2)CC(CNC(=O)/C=C/c2sccc2Cl)O3)s1 (stereo not drawn) [Compound 163, (E)-N-((5-(5-acetylthiophen-2-yl)-7-chloro-2,3-dihydrobenzofuran-2-yl)methyl)-3-(3-chlorothiophen-2-yl)acrylamide]	> 30	> 30	> 30
CC(=O)c1ccc(-c2cc(Cl)c3c(c2)CC(CNC(=O)/C=C/c2nccn2C)O3)s1 (stereo not drawn) [Compound 164, (E)-N-((5-(5-acetylthiophen-2-yl)-7-chloro-2,3-dihydrobenzofuran-2-yl)methyl)-3-(1-methyl-1H-imidazol-2-yl)acrylamide]	> 30	> 30	> 30
CC(=O)c1ccc(-c2ccc(Cl)c3c2CC(CNC(=O)/C=C/c2cccnc2)O3)s1 (stereo not drawn) [Compound 173, (E)-N-((4-(5-acetylthiophen-2-yl)-7-chloro-2,3-dihydrobenzofuran-2-yl)methyl)-3-(pyridin-3-yl)acrylamide]	0.1 to 5	0.1 to 5	0.1 to 5
CC(=O)c1ccc(-c2cc(Cl)c3c(c2)CC(CNC(=O)/C=C/c2ccc(C)nc2C)O3)s1 (stereo not drawn) [Compound 174, (E)-N-((5-(5-acetylthiophen-2-yl)-7-chloro-2,3-dihydrobenzofuran-2-yl)methyl)-3-(2,6-dimethylpyridin-3-yl)acrylamide]	> 30	> 30	> 30
CCc1nc(C)c(/C=C/C(=O)NCC2Cc3cc(-c4ccc(C(C)=O)s4)cc(Cl)c3O2)[nH]1 (stereo not drawn) [Compound 177, (E)-N-((5-(5-acetylthiophen-2-yl)-7-chloro-2,3-dihydrobenzofuran-2-yl)methyl)-3-(2-ethyl-4-methyl-1H-imidazol-5-yl)acrylamide]	> 30	0.1 to 5	0.1 to 5
